Where a name gives a salt, the structure may show the parent alone.

For orientation: IC50 means the midpoint of a concentration-inhibition curve. For orientation: EC50 means the concentration giving half of the maximal effect. Read a high EC50 as lower potency in that assay.

The first experiment has as its target T1, SHIP1 (Homo sapiens, UniProt Q92835).
T1 sequence (Q92835 396-858): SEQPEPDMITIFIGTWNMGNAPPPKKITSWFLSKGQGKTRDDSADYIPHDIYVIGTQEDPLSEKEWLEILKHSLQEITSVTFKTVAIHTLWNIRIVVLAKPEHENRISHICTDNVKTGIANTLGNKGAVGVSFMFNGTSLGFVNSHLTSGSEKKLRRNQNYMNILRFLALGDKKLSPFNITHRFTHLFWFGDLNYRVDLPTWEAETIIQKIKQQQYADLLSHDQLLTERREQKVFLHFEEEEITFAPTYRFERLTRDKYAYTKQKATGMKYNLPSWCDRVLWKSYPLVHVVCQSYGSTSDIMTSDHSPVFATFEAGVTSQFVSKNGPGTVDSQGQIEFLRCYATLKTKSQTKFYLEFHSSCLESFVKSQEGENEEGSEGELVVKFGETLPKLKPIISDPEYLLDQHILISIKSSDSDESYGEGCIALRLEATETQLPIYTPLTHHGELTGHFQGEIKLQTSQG
Nature of the experiment: Malachite green enzyme assay. The format is biochemical. The conditions noted are these: Table 1; PI(3,4,5)P3-diC8 52 μM, enzyme 10 nM, SHIP1 Ptase-C2, 25° C., pH7.4; geometric mean; read-out: SHIP1 IC50 μM (n). An excerpt: The inventors have performed a screen of 50K compounds at the SHIP1 phosphatase, analyzed a publicly available fragment-based screen, and evaluated inhibitors reported in the literature. They utilized the malachite green assay with PtdIns(3,4,5)P3-diC8 and SHIP1 Ptase-C2 to measure inhibitory potency. A Cellular Thermal Shift Assay was used to confirm target engagement in cells. A phosphoAKT assay was used to provide additional evidence of on-target activity. A high-content imaging assay measuring phagocytosis, cell number, and nuclear intensity was implemented using the BV2 and HMC3 cell lines to characterize cellular pharmacology and cytotoxicity. […] Inhibitors predicted to have drug-like properties were subjected to assays measuring solubility, cellular permeability, and mouse microsomal stability. A physiological based pharmacokinetic model was compared to measured exposure in vivo for select compounds upon oral administration in mice.
Malachite Green Enzyme Assay. […] Compounds diluted in DMSO were added to 384-well plates. Enzyme solution was added. After a 20 min incubation period, the reaction was initiated by addition of PI(3,4,5)P3-diC8. Final compound concentrations ranged from 50 nM to 950 μM. Final reaction concentrations for the PI(3,4,5)P3-diC8 substrate and the enzyme were 52 μM and 10 nM respectively. The reaction was quenched after 10 min by adding Malachite BioMol Green (Enzo Lifesciences, PA, USA). Plates were then incubated for 30 min at room temperature. Absorbance (620 nm) was measured using a SpectraMax Me5 Microplate Reader (Molecular Devices, LLC, USA). IC50 values were calculated by fitting absorbance versus inhibitor concentration.
Compounds diluted in DMSO were added to 384-well plates. Enzyme solution was added. After a 20 min incubation period, the reaction was initiated by addition of PI(3,4,5)P3-diC8. Final compound concentrations ranged from 50 nM to 950 μM. Final reaction concentrations for the PI(3,4,5)P3-diC8 substrate and the enzyme were 52 μM and 10 nM respectively. The reaction was quenched after 10 min by adding Malachite BioMol Green (Enzo Lifesciences, PA, USA). Plates were then incubated for 30 min at room temperature. Absorbance (620 nm) was measured using a SpectraMax Me5 Microplate Reader (Molecular Devices, LLC, USA). IC50 values were calculated by fitting absorbance versus inhibitor concentration and are reported as the geometric mean and standard error of mean with the number of repeats (n) indicated. Compounds and activities are as depicted in tables 1 and 2 above.
For the molecule `COC(=O)N1CCC(n2cc(-c3cncc(OCc4ccccc4Cl)c3)cn2)CC1` [Compound 17, Methyl 4-(4-(5-((2-chlorobenzyl)oxy)pyridin-3-yl)-1H-pyrazol-1-yl)piperidine-1-carboxylate], the IC50 came out at 133 µM.
Turning to `O=C(c1ccccc1)N1CCC(n2cc(-c3cncc(OCc4ccccc4Cl)c3)cn2)CC1` [Compound 18, (4-(4-(5-((2-chlorobenzyl)oxy)pyridin-3-yl)-1H-pyrazol-1-yl)piperidin-1-yl)(phenyl)methanone], the 50% inhibitory concentration (IC50) was found to be 99.2 µM.
Regarding `Brc1ccc(COc2cncc(-c3cnn(C4CCNCC4)c3)c2)cc1` [Compound 12, 3-((4-bromobenzyl)oxy)-5-(1-(piperidin-4-yl)-1H-pyrazol-4-yl)pyridine hydrochloride], the IC50 is 29.7 µM.
As for `c1ccc(COc2cncc(-c3cnn(C4CCNCC4)c3)c2)cc1` [Compound 14, 3-(benzyloxy)-5-(1-(piperidin-4-yl)-1H-pyrazol-4-yl)pyridine trifluoroacetate], the half-inhibitory concentration (IC50) is 208 µM.
Still for that read-out and setting: next, `CC(C)(C)OC(=O)N1CCC(n2cc(-c3cncc(OCc4ccc(Cl)cc4Cl)c3)cn2)CC1` [Compound 8, tert-butyl 4-(4-(5-((2,4-dichlorobenzyl)oxy)pyridin-3-yl)-1H-pyrazol-1-yl)piperidine-1-carboxylate]: 18.1 µM.
On the same count and under the same terms, next, `CC(C)(C)OC(=O)N1CCC(n2cc(-c3cncc(OCc4ccc(Cl)cc4)c3)cn2)CC1` [Compound 6, tert-butyl 4-(4-(5-((4-chlorobenzyl)oxy)pyridin-3-yl)-1H-pyrazol-1-yl)piperidine-1-carboxylate]: 137 µM.
Consider `Clc1ccc(COc2cncc(-c3cnn(C4CCNCC4)c3)c2)cc1` [Compound 11, 3-((4-chlorobenzyl)oxy)-5-(1-(piperidin-4-yl)-1H-pyrazol-4-yl)pyridine hydrochloride], for which the IC50 came to 109 µM.

In the next experiment the target is T2, HiBit-labeled full length SHIP1 protein (Homo sapiens, UniProt Q92835).
T2 construct: thermal stability of a HiBit-labeled full length SHIP1 protein in intact cells; expressed in transfected cells; host or cells: HMC3 (stably transfected)
T2 sequence (Q92835 1-1189): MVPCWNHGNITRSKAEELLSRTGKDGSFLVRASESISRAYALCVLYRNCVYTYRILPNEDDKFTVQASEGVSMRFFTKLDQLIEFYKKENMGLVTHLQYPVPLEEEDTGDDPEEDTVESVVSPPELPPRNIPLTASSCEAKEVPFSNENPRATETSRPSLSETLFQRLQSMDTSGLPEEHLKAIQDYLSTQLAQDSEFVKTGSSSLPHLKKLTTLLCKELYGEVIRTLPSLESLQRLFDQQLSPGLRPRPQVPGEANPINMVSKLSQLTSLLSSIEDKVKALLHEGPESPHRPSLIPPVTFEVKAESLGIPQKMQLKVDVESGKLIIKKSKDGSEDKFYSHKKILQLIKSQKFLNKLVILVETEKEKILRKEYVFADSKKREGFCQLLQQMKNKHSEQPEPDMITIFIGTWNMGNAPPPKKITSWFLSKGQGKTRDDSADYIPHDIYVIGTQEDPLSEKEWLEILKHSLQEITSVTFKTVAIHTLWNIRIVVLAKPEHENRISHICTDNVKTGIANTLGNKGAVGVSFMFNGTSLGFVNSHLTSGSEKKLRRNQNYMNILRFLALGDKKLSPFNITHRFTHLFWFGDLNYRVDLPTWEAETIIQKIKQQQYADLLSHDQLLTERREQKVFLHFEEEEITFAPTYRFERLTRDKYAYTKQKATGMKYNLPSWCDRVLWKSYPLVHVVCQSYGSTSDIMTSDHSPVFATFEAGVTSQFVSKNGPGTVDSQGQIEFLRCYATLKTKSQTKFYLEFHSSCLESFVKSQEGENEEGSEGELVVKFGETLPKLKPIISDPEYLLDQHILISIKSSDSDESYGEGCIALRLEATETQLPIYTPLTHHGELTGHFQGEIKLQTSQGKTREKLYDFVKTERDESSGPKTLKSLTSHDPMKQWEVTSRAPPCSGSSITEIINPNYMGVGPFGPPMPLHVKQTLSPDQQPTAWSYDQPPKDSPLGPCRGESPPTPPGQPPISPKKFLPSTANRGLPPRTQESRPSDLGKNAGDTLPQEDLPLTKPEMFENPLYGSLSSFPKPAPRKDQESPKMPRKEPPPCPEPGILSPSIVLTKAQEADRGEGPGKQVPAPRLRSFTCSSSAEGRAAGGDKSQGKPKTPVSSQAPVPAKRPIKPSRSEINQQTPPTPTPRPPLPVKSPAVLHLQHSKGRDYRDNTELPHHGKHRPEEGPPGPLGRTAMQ
Nature of the experiment: Cellular thermal shift assay (SplitLuc CETSA), compound dose response. Format: cell-based. Particulars: HMC3/HiBit-INPP5D cells, 60 min, heated at 44.2° C. The protocol:
Cellular thermal shift assay (CETSA). […] This assay was run in the following two formats with HMC3/HiBit-INPP5D stably transfected cells.
2. Compound dose response: run at target Tm (44.2° C. for SHIP1) with compound dosing from 80 uM or 100 uM with 1:3 serial dilutions to generate an 8 point curve. Cells were treated for 60 min before being heated at target Tm for 3 min before luminescence detection. An AC50 was calculated using a four-parameter logistic curve regression model with change at highest concentration noted when difference from control >3SD, otherwise AC50 marked as “nc” for not calculated.
See Martinez et al. (2018) Sci Rep 8: p. 9472; Oh-Hashi et al. (2017) Biochem Biophys Rep 12: pp. 40-45. This assay was run in the following two formats with HMC3/HiBit-INPP5D stably transfected cells.
Compound dose response: run at target Tm (44.2° C. for SHIP1) with compound dosing from 80 uM or 100 uM with 1:3 serial dilutions to generate an 8-point curve. Cells were treated for 60 min before being heated at target Tm for 3 min before luminescence detection. The concentration that induced a half-maximum response (AC50) was calculated using a four-parameter logistic curve regression model with change at highest concentration noted when difference from control >3SD.
In the case of `O=C(OCc1ccccc1)N1CCC(n2cc(-c3cncc(OCc4ccccc4Cl)c3)cn2)CC1` [Compound 19, Benzyl 4-(4-(5-((2-chlorobenzyl)oxy)pyridin-3-yl)-1H-pyrazol-1-yl)piperidine-1-carboxylate], the “CETSA Min Inhibition (%)” value came to 72.1%.

A further experiment has as its system BV2 cells. As to the kind of experiment: pHrodo-myelin phagocytosis/cell health assay, BV2 cells. The conditions noted are these: Mus musculus, BV-2, compound 48 hrs, 60 μM to 3 nM, (n) in cell. Format: cell-based. The protocol:
pHrodo-myelin phagocytosis/cell health assay with microglial cells. This 384-well plate high content imaging assay was developed to quantify phagocytosis and cell health simultaneously using either BV2 or HMC3 immortalized microglial cell lines or primary microglia isolated from mouse brain. Cells were cultured in DMEM GlutaMax media (ThermoFisher) containing 10% FBS and Pen-Strep in 37° C. 5% CO2 incubator.
Day 1: Cells were plated (Corning Falcon 384 well Optilux Black and clear bottom plates for imaging) with BV2 at 400 cells/45 μl/well, HMC3 at 600 cells/45 μl/well, or primary at 2000 cell/45 μl/well.
Day 2: Cells were treated with 10× serially diluted compounds in a dose range of 60 μM to 3 nM for 48 hrs at 37° C.
Day 3: Cells were seeded with pHrodo-myelin (for total 20 hrs) 24 hrs after starting compound treatment. The pHrodo-myelin stocks were at 1 mg/ml (protein equivalent) stored in −20° C. or −80° C. freezer. Stocks were thawed and diluted with culture media into 10× seeding solution (50 μg/ml) and added 5 μl/well to 384 well cell plate.
Day 4: Cell staining and imaging. Nuclear staining solution was prepared by adding 1 μl of 10 mg/mL Hoechst-33342 to every 1 ml culture media that will be added to cell plate at 20 μl/well. The final concentration of Hoechst-33342 to cells was about 2.5 μg/ml. Cell plates were incubated for >30 min at 37° C. before imaging. Cell plates were scanned with an ArrayScan automatic high content imaging system using a 10× objective lens, 4 fields/well collected. Three measurements were obtained 1) mean total phagocytosis spot intensity per cell, 2) total cell counts per well, and 3) mean average nuclear intensity per cell for cell health.
This 384-well plate high content imaging assay was developed to quantify phagocytosis and cell health simultaneously using either BV2 or HMC3 immortalized microglial cell lines or primary microglia isolated from mouse brain. Cells were cultured in DMEM GlutaMax media (ThermoFisher) containing 10% FBS and Pen-Strep in 37° C. 5% CO2 incubator. Day 1: Cells were plated (Corning Falcon 384 well Optilux Black and clear bottom plates for imaging) with BV2 at 400 cells/45 μl/well, HMC3 at 600 cells/45 μl/well, or primary at 2000 cell/45 μl/well. Day 2: Cells were treated with 10× serially diluted compounds in a dose range of 60 μM to 3 nM for 48 hrs at 37° C. Day 3: Cells were seeded with pHrodo-myelin (for total 20 hrs) 24 hrs after starting compound treatment. The pHrodo-myelin stocks were at 1 mg/ml (protein equivalent) stored in −20° C. or −80° C. freezer. Stocks were thawed and diluted with culture media into 10× seeding solution (50 μg/ml) and added 5 μl/well to 384 well cell plate. Day 4: Cell staining and imaging. Nuclear staining solution was prepared by adding 1 μl of 10 mg/mL Hoechst-33342 to every 1 ml culture media that will be added to cell plate at 20 μl/well. The final concentration of Hoechst-33342 to cells was about 2.5 μg/ml. Cell plates were incubated for >30 min at 37° C. before imaging. Cell plates were scanned with an ArrayScan automatic high content imaging system using a 10× objective lens, 4 fields/well collected. Three measurements were obtained 1) mean total phagocytosis spot intensity per cell, 2) total cell counts per well, and 3) mean average nuclear intensity per cell for cell health.
Consider `O=C(OCc1ccccc1)N1CCC(n2cc(-c3cncc(OCc4ccccc4Cl)c3)cn2)CC1` [Compound 19, Benzyl 4-(4-(5-((2-chlorobenzyl)oxy)pyridin-3-yl)-1H-pyrazol-1-yl)piperidine-1-carboxylate], for which the concentration for a half-maximal effect (EC50) was determined as 0.958 µM.

For the origin of these results see patent US20260242352A1, “INHIBITION OF SHIP1 AS A THERAPEUTIC STRATEGY FOR THE TREATMENT OF ALZHEIMER'S DISEASE” (The Trustees of Indiana University, priority 2022, published 2026).
